Laboratory results as given in patent US12600732B2, “Bifunctional compounds for degrading BTK via ubiquitin proteosome pathway” (NURIX THERAPEUTICS, INC., priority 2019, dated 2026).
pEC50: −log10 of the molar value.

Assays:
[1] = target: T1, Aiolos (Homo sapiens, UniProt Q96SW2+Q9UKT9); assay: Aiolos degradation in Mantle Cell Lymphoma lines (flow cytometry); assay type: cell-based; settings: for DC50: treatment time 24 h; for IMiD activity (degradation of IMiD neo-substrates Ikaros and Aiolos): Mantle Cell Lymphoma lines Mino and Rec-1
T1 construct: endogenous in cells; host or cells: Mino, Rec-1
Source text: Ikaros and Aiolos Degradation in Mantle Cell Lymphoma Lines (Ikaros and Aiolos Flow Cytometry)
This example evaluates the IMiD activity of CTMs in cellular models of Mantle Cell Lymphoma (MCL). […] These assays are to determine potency of CTMs for degrading IMiD neo-substrates in cellular models of MCL and to generate data to inform efficacy studies in MCL xenografts.

[2] = system: B cell receptor (BCR) signaling; assay: B cell activation assay (flow cytometry), mouse B cells; assay type: cell-based; settings: treatment 4 h, IgM stimulation 18 h
In short: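 Compound was present throughout BCR stimulation. Live single lymphocytes were gated into CD20+CD3− B cells and CD3+CD20− T cells by flow cytometry. Geometric MFI of CD86 and CD69 was measured per population, with unstimulated samples defining baseline activation.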

[3] = system: B cell receptor (BCR) signaling; assay: B cell activation assay (flow cytometry), human B cells; assay type: cell-based; settings: treatment 4 h, IgM stimulation 18 h
Description: Compound was present throughout the stimulation. Cells were stained with Live/Dead dye (Fisher L34976) and then fluorophore-conjugated antibodies against CD20 (Biolegend 302330), CD3 (BD Pharmingen 557705), CD86 (Biolegend 305416) and CD69 (Biolegend 310906). Stained cells were fixed in PFA and run on an Attune N×T Acoustic Focusing Flow Cytometer (Thermo-Fisher A29004), and data was analyzed using FlowJo (v10.5.3) and GraphPad Prism (v7.00) software. Single live lymphocytes were gated for B cells (CD20+CD3−) and T cells (CD3+CD20−), and the geometric mean fluorescence intensity (MFI) of CD86 and CD69 was calculated for each population. The MFI of the unstimulated sample was used to quantify baseline activation.
This example evaluates whether CTM treatment affects B cell receptor (BCR) signaling. BTK is activated downstream of the B cell receptor and leads to upregulation of activation markers CD86 and CD69 on the surface of B cells.

[4] = system: primary human T cells; assay: T cell activation assay, CD25 and CD69 staining (flow cytometry); assay type: cell-based; settings: for CD25 Staining Anti-CD3/Anti-CD28 Stimulation / CD69 Staining Anti-CD3/Anti-CD28 Stimulation: fold-change of response relative to baseline; for expression of CD25 and CD69 compared to baseline (anti-CD3/anti-CD28 stimulation alone): primary human T cells
In short: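 Primary human T cells stimulated via TCR with anti-CD3/anti-CD28 in the presence of test compound. IL-2 secretion measured by ELISA; surface CD25 and CD69 by flow cytometry. Values are fold-change versus anti-CD3/anti-CD28 stimulation without compound.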

[5] = system: Mino cells; assay: Cell viability assay (CellTiter-Glo), Mino cells; assay type: cell-based; settings: for pEC50: Homo sapiens; for pEC50 / EMAX (% viable cells): Mino cells, treatment time 72 h; for potency on cell viability compared with compound 130: MCL cell lines (Mino and Rec-1)
Source text: This example evaluates effects of CTM-mediated degradation on cell viability. […] Mino and Rec-1 are models of Mantle Cell Lymphoma, which is sensitive to IMiDs.

[6] = system: Aiolos; assay: Non-human primate (cyno) DRF PD, Aiolos remaining in T cells; assay type: in vivo; settings: for % Aiolos Remaining in T cells: blood, 24 h after previous dose
Description: This example evaluates potency and tolerability of BTK CTMs following multiple, consecutive days of dosing and examines potency of compounds for BTK and Aiolos degradation. The data in the table below is from a study in which animals were dosed daily with the designated oral dose. Analysis for BTK and Aiolos levels was performed twenty-four hours following the previous dose.

[7] = target: BTK (Homo sapiens, UniProt Q06187); assay: BTK degradation in human PBMCs (BTK flow cytometry), primary human B cells; assay type: cell-based; design: endogenous in cells; host or cells: human PBMC (B cells) from healthy donors
Description: Human peripheral blood mononuclear cells (PBMC) were obtained either: 1) by using Ficoll-Paque™ (GE Healthcare) for separation of peripheral blood hematopoietic cells from buffy coats of healthy human donors; or 2) directly from LeukoPak donations. PBMCs were grown at 37° C. and 5% CO2 in RPMI supplemented with 10% heat-inactivated FBS (Corning Premium Fetal Bovine Serum from Fisher, MT35015CV), 1× Penicillin/Streptomycin, and 2 mM Glutamine.
BTK Degradation in Human PBMCs (BTK Flow Cytometry)
This example evaluates the potency of CTMs in primary human B cells, rather than transformed or immortalized cancer cell lines. Primary cells are believed to be a physiologically relevant model. Thus, this example confirms the potency, kinetics, and level of BTK degradation in these cells in addition to the cell line models. Furthermore, this assay establishes that it is possible to monitor BTK degradation in primary human B cells, which can serve as a clinical biomarker.

[8] = 10 mg/kg PO daily, 1 day of dosing
[9] = 10 mg/kg PO daily, 14 days of dosing
[10] = 30 mg/kg PO daily, 1 day of dosing
[11] = 30 mg/kg PO daily, 14 days of dosing
[12] = 100 mg/kg PO daily, 1 day of dosing
[13] = 100 mg/kg PO daily, 14 days of dosing

Chain of BTK (Q06187 whole entry): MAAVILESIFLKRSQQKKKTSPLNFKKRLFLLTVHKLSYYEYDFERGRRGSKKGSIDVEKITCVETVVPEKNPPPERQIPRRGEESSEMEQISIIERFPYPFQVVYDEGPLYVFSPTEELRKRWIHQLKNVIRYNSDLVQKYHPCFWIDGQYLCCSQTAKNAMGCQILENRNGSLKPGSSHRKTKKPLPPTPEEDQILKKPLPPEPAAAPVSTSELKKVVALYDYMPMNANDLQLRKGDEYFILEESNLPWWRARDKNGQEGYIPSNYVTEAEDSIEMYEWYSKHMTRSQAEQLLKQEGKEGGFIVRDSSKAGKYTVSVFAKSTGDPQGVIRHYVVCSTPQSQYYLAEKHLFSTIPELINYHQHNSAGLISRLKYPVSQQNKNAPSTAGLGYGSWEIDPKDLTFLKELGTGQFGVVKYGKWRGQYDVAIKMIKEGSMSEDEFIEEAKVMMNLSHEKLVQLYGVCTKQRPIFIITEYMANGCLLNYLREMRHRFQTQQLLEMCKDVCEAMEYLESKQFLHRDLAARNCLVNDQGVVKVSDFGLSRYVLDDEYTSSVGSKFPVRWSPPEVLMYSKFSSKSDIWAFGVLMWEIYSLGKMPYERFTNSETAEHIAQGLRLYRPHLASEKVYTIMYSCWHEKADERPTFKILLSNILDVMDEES
T1 sequence (Q9UKT9 whole entry): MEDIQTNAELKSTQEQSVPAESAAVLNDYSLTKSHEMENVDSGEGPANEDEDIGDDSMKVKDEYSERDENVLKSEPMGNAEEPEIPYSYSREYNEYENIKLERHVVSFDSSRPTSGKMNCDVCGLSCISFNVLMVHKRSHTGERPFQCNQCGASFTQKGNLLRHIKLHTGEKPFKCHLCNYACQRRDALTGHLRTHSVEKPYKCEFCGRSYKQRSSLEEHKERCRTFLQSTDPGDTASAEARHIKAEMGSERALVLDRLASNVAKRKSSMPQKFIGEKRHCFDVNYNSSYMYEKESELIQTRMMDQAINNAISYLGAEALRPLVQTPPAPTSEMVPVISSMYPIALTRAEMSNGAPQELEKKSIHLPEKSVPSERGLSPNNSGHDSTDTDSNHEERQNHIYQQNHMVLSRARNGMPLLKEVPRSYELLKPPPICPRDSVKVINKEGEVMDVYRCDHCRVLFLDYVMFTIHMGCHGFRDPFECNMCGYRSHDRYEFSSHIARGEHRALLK
T1 sequence (Q96SW2 whole entry): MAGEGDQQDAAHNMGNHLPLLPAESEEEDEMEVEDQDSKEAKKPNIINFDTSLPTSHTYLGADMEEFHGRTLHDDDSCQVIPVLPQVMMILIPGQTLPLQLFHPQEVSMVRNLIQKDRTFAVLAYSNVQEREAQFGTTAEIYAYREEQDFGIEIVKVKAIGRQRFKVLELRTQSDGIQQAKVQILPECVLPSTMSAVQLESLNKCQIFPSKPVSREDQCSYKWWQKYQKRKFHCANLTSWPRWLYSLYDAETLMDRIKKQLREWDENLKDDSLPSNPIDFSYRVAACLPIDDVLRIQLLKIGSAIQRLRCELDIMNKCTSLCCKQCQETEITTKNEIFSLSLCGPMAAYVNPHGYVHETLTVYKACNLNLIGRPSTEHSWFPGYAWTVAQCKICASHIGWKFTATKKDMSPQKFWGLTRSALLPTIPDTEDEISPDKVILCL
T1 sequence (Q16531 whole entry partner): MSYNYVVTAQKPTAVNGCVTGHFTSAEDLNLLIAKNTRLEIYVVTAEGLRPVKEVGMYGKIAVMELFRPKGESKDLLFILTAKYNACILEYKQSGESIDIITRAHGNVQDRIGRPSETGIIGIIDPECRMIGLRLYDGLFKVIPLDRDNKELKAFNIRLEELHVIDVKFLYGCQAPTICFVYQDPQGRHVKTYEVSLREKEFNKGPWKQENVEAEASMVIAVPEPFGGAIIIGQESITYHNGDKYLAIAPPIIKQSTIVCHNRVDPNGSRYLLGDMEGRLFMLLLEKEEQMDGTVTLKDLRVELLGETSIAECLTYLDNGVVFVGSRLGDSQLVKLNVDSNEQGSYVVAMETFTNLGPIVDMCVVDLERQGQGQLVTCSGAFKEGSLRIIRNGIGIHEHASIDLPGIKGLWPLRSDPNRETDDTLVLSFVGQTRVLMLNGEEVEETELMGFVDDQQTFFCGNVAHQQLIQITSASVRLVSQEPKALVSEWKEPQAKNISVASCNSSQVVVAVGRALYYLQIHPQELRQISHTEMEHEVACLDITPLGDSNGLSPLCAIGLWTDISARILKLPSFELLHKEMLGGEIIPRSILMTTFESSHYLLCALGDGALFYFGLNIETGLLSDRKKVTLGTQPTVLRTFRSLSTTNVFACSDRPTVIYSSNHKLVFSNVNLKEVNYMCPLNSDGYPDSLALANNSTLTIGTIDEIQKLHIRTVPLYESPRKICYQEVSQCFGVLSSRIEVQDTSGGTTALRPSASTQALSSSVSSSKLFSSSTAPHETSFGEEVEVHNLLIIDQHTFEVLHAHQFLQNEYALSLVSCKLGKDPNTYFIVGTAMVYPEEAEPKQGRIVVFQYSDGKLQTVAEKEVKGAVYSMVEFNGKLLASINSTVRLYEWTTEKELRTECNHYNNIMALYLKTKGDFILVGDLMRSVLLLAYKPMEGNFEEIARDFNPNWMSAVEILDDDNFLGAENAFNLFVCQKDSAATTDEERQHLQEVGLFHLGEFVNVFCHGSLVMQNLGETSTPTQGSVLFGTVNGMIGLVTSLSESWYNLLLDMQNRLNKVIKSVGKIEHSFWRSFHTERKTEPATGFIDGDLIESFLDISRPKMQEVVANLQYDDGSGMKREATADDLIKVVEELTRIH

Compound | DC50 ([1]; Mino cells) [nM] | DC50 ([1]; Rec-1 cells) [nM] | pEC50 ([2]; read-out: CD69 EC50) | pEC50 ([2]; read-out: CD86 EC50) | pEC50 ([3]; read-out: CD69 EC50) | pEC50 ([3]; read-out: CD86 EC50) | CD25 Staining Anti-CD3/Anti-CD28 Stimulation ([4]; 1.4 nM) | CD69 Staining Anti-CD3/Anti-CD28 Stimulation ([4]; 1.4 nM) | CD25 Staining Anti-CD3/Anti-CD28 Stimulation ([4]; 37 nM) | CD69 Staining Anti-CD3/Anti-CD28 Stimulation ([4]; 37 nM) | CD25 Staining Anti-CD3/Anti-CD28 Stimulation ([4]; 333 nM) | CD69 Staining Anti-CD3/Anti-CD28 Stimulation ([4]; 333 nM) | pEC50 [5] | EMAX (% viable cells) [5] [%] | % Aiolos Remaining in T cells [6, 8] [%] | % Aiolos Remaining in T cells [6, 9] [%] | % Aiolos Remaining in T cells [6, 10] [%] | % Aiolos Remaining in T cells [6, 11] [%] | % Aiolos Remaining in T cells [6, 12] [%] | % Aiolos Remaining in T cells [6, 13] [%] | other results
CN1CCN([C@@H]2CCCN(c3cnc(C(N)=O)c(Nc4ccc(C5CCN(C[C@H]6CCN(c7ccc8c(c7)C(=O)N(C7CCC(=O)NC7=O)C8=O)C6)CC5)cc4)n3)C2)C1=O (stereo partly drawn) [Compound 44] | 100 | 70 | 9.70 | 9.40 | 9.30 | 9.30 | 1.25 | 1.21 | 0.86 | 0.85 | 0.52 | 0.60 | 7.93 | 61 | 96 | 71 | 99 | 69 | 96 | 63 | expression of CD25 and CD69 compared to baseline (anti-CD3/anti-CD28 stimulation alone) [4]: unchanged or decreased levels; potency on cell viability compared with compound 130 [5]: more potent; DC50 ([7]; treatment time 1 h): 6 nM; DC50 ([7]; treatment time 2 h): 3 nM; DC50 ([7]; treatment time 4 h): 0.51 nM
NC(=O)c1ncc(N2CCCCC2)nc1Nc1ccc(C2CCN(C[C@@H]3CCN(c4ccc5c(c4)C(=O)N(C4CCC(=O)NC4=O)C5=O)C3)CC2)cc1 (stereo partly drawn) [Compound 149] | 87 | 81 | – | – | 8.40 | 8.30 | 1.31 | 1.22 | 1.02 | 0.93 | 0.61 | 0.63 | 8.47 | 50 | 79 | 76 | 74 | 55 | 77 | 43 | IMiD activity (degradation of IMiD neo-substrates Ikaros and Aiolos) [1]: demonstrate IMiD activity; expression of CD25 and CD69 compared to baseline (anti-CD3/anti-CD28 stimulation alone) [4]: unchanged or decreased levels; potency on cell viability compared with compound 130 [5]: more potent; Aiolos degradation ([6]; after fourteen days of dosing): demonstrated Aiolos degradation; DC50 ([7]; treatment time 4 h): 1.9 nM
CN1CCN([C@H]2CCCN(c3cnc(C(N)=O)c(Nc4ccc(C5CCN(CC6CCN(c7ccc(C(=O)NC8CCC(=O)NC8=O)nc7)CC6)CC5)cc4)n3)C2)C1=O (stereo partly drawn) [Compound 130] | > 2000 | > 2000 | – | – | 9.40 | 9.30 | 1.02 | 1.00 | 0.98 | 0.96 | 0.55 | 0.55 | 6.75 | 78 | 102 | 96 | 98 | 108 | 106 | 99 | IMiD activity (degradation of IMiD neo-substrates Ikaros and Aiolos) [1]: not others; DC50 ([7]; treatment time 4 h): 0.13 nM
CN1CCN([C@@H]2CCCN(c3cnc(C(N)=O)c(Nc4ccc(C5CCN(CC6CCN(c7ccc8c(=O)n(C9CCC(=O)NC9=O)ccc8c7)CC6)CC5)cc4)n3)C2)C1=O (stereo partly drawn) [Compound 72] | – | – | 10.15 | 9.70 | – | – | – | – | – | – | – | – | – | – | – | – | – | – | – | – | –
CN1CCN([C@@H]2CCCN(c3cnc(C(N)=O)c(Nc4ccc(C5CCN(CC6CCN(c7ccc(-c8nn(C9CCC(=O)NC9=O)c(=O)n8C)cc7)CC6)CC5)cc4)n3)C2)C1=O (stereo partly drawn) [Compound 121] | – | – | 9.30 | 9.05 | – | – | – | – | – | – | – | – | – | – | – | – | – | – | – | – | –
